Source: ChEMBL document CHEMBL1121983, “Conformational requirements for norepinephrine uptake inhibition by phenethylamines in brain synaptosomes. Effects of alpha-alkyl substitution” (J Med Chem, 1982)

Organism: Rattus norvegicus
Test: Inhibition of [3H]norepinephrine uptake was determined in rat brain synaptosomal preparation
Type: functional

Structure (SMILES) | IC50 [nM]
CC(N)Cc1ccccc1 (racemic) | 490
N[C@H]1CCc2ccccc2C1 (racemic) | 850
CC[C@H](N)Cc1ccccc1 (racemic) | 6500
N[C@H]1C=Cc2ccccc2C1 (racemic) | 650
